The text below walks through data of patent US6784201B2, “Benzothiepines having activity as inhibitors of ileal bile acid transport and taurocholate uptake” (G.D. Searle & Company, priority 1994, dated 2004).

This assay has as its target T1, human IBAT (Homo sapiens, UniProt Q12908).
T1 construct: expressed in transfected cells; host or cells: Baby hamster kidney (BHK) cells, clone H14
T1 sequence (Q12908 1-348): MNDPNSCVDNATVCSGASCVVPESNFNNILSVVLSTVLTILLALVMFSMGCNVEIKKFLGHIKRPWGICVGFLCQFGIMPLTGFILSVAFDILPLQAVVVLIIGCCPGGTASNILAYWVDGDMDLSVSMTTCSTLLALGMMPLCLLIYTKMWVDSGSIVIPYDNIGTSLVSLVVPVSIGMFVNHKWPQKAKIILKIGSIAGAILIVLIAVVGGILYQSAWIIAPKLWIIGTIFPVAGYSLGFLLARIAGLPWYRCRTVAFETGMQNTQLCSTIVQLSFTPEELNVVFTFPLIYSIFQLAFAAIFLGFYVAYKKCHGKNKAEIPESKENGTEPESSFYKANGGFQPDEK
Put plainly: In vitro assay of IBAT-mediated uptake of [14C]-taurocholate (TC) in H14 cells. The settings on record: read-out: Human TC IC50. In kind it is cell-based. An outline of the steps: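 BHK cells stably expressing human IBAT (H14) were incubated 2 h at 37° C with compound and 3 μM final [14C]-taurocholate in DMEM (4.5 g/L glucose) plus 0.2% fatty acid-free BSA. After cold PBS washes, cell-associated radioactivity was measured by scintillation counting.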

As to `C=CCOc1ccc(C2c3cc(N(C)C)ccc3S(=O)(=O)CC(CCCC)(CCCC)C2O)cc1Cl` (stereo not drawn) [Example 1167], the IC50 (as a rule, the concentration that gives 50% inhibition) was found to be 120 nM. Turning to `CCCCC1(CCCC)CS(=O)(=O)c2ccc([N+](C)(C)C)cc2C(c2ccc(O)cc2)C1O` (stereo not drawn) [Example 1168], the half-inhibitory concentration (IC50) worked out at 120 nM. For `CCCCC1(CCCC)CS(=O)(=O)c2cc(N(C)C)ccc2C(c2ccccc2)C1O` (stereo not drawn) [Example 1169] the value was 120 nM; for `CCCCC1(CCCC)CS(=O)(=O)c2ccc(N(C)C)cc2C(c2ccc(OS(=O)(=O)C(F)(F)F)cc2)C1O` (stereo not drawn) [Example 1171], 140 nM. To `CCCCC1(CCCC)CS(=O)(=O)c2ccc(OC)cc2C(c2ccncc2)C1O` (stereo not drawn) [Example 1172] belongs 140 nM; to `CCCCC1(CC)CS(=O)(=O)c2ccc(-c3ccccc3)cc2C(c2cccc(OC)c2)C1O` (stereo not drawn) [Example 1174], 150 nM.

`CCCCC1(CC)CS(=O)(=O)c2ccc(S(C)(=O)=O)cc2C(c2cccc(OC)c2)C1O` (stereo not drawn) [Example 1175]: the IC50 stood at 170 nM. To `CCCCC1(CCCC)CS(=O)(=O)c2c(F)cccc2C(c2ccc(F)cc2)C1O` (stereo not drawn) [Example 1176] belongs 180 nM. For `CCCCN(C)c1ccc2c(c1)C(c1cccc(OC)c1)C(O)C(CCCC)(CCCC)CS2(=O)=O` (stereo not drawn) [Example 1177] the value was 180 nM; for `CCCCC1(CCCC)CS(=O)(=O)c2ccc(N(C)C)cc2C(c2cccc(OS(=O)(=O)C(F)(F)F)c2)C1O` (stereo not drawn) [Example 1178], 190 nM.

On to `CCCCC1(CCCC)CS(=O)(=O)c2cc(OC)ccc2C(c2ccccc2)C1O` (stereo not drawn) [Example 1179], for which the IC50 was 190 nM. For `CCCCC1(CCCC)CS(=O)(=O)c2ccc([N+](C)(C)C)cc2C(c2ccccc2)C1O` (stereo not drawn) [Example 1180] the value was 200 nM. For `CCCCN(C)c1ccc2c(c1)C(c1ccc(F)cc1)C(O)C(CCCC)(CCCC)CS2(=O)=O` (stereo not drawn) [Example 1181] the value was 220 nM; for `CCCCC1(CCCC)CS(=O)(=O)c2ccc(OC)cc2C(c2ccc(N(C)C)cc2)C1O` (stereo not drawn) [Example 1182], 250 nM; for `CCCCC1(CCCC)CS(=O)(=O)c2ccc(F)cc2C(c2cccc(OC)c2)C1O` (stereo not drawn) [Example 1183], 280 nM. For `CCCCC1(CCCC)CS(=O)(=O)c2c(F)cc(F)cc2C(c2ccc(F)cc2)C1O` (stereo not drawn) [Example 1184] the value was 280 nM; for `CCCCC1(CCCC)CS(=O)(=O)c2ccc(F)cc2C(c2ccc(F)cc2)C1O` (stereo not drawn) [Example 1185], 280 nM; for `CCCCC1(CCCC)CS(=O)(=O)c2c(F)cc(F)cc2C(c2ccccc2)C1O` (stereo not drawn) [Example 1186], 300 nM.

`CCCCC1(CCCC)CS(=O)(=O)c2ccc(C)cc2C(c2ccc(F)cc2)C1O` (stereo not drawn) [Example 1187]: the IC50 is 320 nM. For `CCCCC1(CCCC)CS(=O)(=O)c2ccc([N+](C)(C)C)cc2C(c2ccc(OC)cc2)C1O` (stereo not drawn) [Example 1188] the value was 350 nM; for `CCCCC1(CCCC)CS(=O)(=O)c2ccc([N+](C)(C)C)cc2C(c2ccc(F)c(F)c2)C1O` (stereo not drawn) [Example 1189], 350 nM. On to `CCCCC1(CCCC)CS(=O)(=O)c2ccc(Br)cc2C(c2ccccc2Br)C1O` (stereo not drawn) [Example 1190], for which the IC50 stood at 550 nM. As to `CCCCC1(CCCC)CS(=O)(=O)c2ccc(O)cc2C(c2ccc(N(C)C)cc2)C1O` (stereo not drawn) [Example 1191], the IC50 was 650 nM. As for `CCCCC1(CCCC)CS(=O)(=O)c2ccc(O)cc2C(c2cccc(N(C)C)c2)C1O` (stereo not drawn) [Example 1192], the IC50 worked out at 1000 nM.

In the case of `CCCCC1(CCCC)CS(=O)(=O)c2ccc(N(C)C)cc2C(c2ccc(OCCOCCOCCOc3ccc(C4c5cc(N(C)C)ccc5S(=O)(=O)CC(CCCC)(CCCC)C4O)cc3F)c(F)c2)C1O` (stereo not drawn) [Example 1194], the IC50 stood at 1600 nM. For `CCCCC1(CCCC)CS(=O)(=O)c2ccc(N3CCN(C)CC3)cc2C(c2ccc(OC)cc2)C1O` (stereo not drawn) [Example 1195] the value was 1700 nM; for `CCCCC1(CCCC)CS(=O)(=O)c2ccc(OC)cc2C(c2cccc([N+](C)(C)C)c2)C1O` (stereo not drawn) [Example 1196], 2000 nM. To `CCCCC1(CC)CS(=O)(=O)c2ccc(N(C)C=O)cc2C(c2ccccc2)C1=O` (stereo not drawn) [Example 1197] belongs 2200 nM; to `CCCCC1(CCCC)CS(=O)(=O)c2ccc(OC)cc2C(c2cc[n+]([O-])cc2)C1O` (stereo not drawn) [Example 1198], 2500 nM. Turning to `CCCCC1(CCCC)CS(=O)(=O)c2ccc(N(C)C)cc2C(c2ccc(OCCOCCOCCOc3ccc(C4c5cc(N(C)C)ccc5S(=O)(=O)CC(CCCC)(CCCC)C4O)cc3)cc2)C1O` (stereo not drawn) [Example 1199], the IC50 amounted to 4000 nM. As for `CCCCC1(CCCC)CS(=O)(=O)c2ccc(C)cc2CC1O` (stereo not drawn) [Example 1201], the IC50 came to 8300 nM.

For the compound `CCCCC1(CCCC)CS(=O)(=O)c2ccc(OC)cc2C(c2ccc([N+](C)(C)C)cc2)C1O` (stereo not drawn) [Example 1202], the IC50 stood at 40000 nM.

Take `CCCCC1(CCCC)CS(=O)(=O)c2ccc(OC)cc2C(c2ccc(F)cc2)C1O` (stereo not drawn) [Example 1204]: the IC50 was found to be 50 nM. With `CCCCC1(CCCC)CS(=O)(=O)c2ccc(N(C)C)cc2C(c2ccc(OCCOCCOCCI)cc2)C1O` (stereo not drawn) [Example 1205], the IC50 turned out to be 34 nM. Consider `CCCCC1(CCCC)CS(=O)(=O)c2ccc(N(C)C)cc2C(c2cccc(C[N+](CC)(CC)CC)c2)C1O` (stereo not drawn) [Example 1206], for which the concentration for half-maximal inhibition (IC50) was determined as 35 nM.

In the case of `CCCCC1(CCCC)CS(=O)(=O)c2ccc(N(C)C)cc2C(c2cc(Cl)cc(Cl)c2)C1O` (stereo not drawn) [Example 1207], the IC50 was determined as 68 nM. To `CCCCC1(CCCC)CS(=O)(=O)c2ccc(N(C)C)cc2C(c2ccc(OC)cc2)C1O` (stereo not drawn) [Example 1208] belongs 42 nM; to `CCCCC1(CCCC)CS(=O)(=O)c2ccc(N(C)C)cc2C(c2ccccc2N(C)C)C1O` (stereo not drawn) [Example 1210], 140 nM; to `CCCCC1(CC)CS(=O)(=O)c2ccc(N(C)C=O)cc2C(c2ccccc2)C1O` (stereo not drawn) [Example 1214], 750 nM. For `CCCCC1(CCCC)CS(=O)(=O)c2c(SC)cccc2C(c2ccc(OC)cc2)C1O` (stereo not drawn) [Example 1215] the value was 190 nM; for `CCCCC1(CCCC)CS(=O)(=O)c2ccc(N(C)C)cc2C(c2ccc(C(=O)O)cc2)C1O` (stereo not drawn) [Example 1217], 320 nM. Consider `CCCCC1(CCCC)CS(=O)(=O)c2c(cccc2S(C)(=O)=O)C(c2ccc(OC)cc2)C1O` (stereo not drawn) [Example 1218], for which the IC50 was 190 nM. For the compound `CCCCC1(CCCC)CS(=O)(=O)c2ccc(N(C)C)cc2C(c2ccc(OCCN(C)C)cc2)C1O` (stereo not drawn) [Example 1219], the IC50 is 340 nM.

Regarding `CCCCC1(CCCC)CS(=O)(=O)c2ccc(NC(C)C)cc2C(c2cccc(OC)c2)C1O` (stereo not drawn) [Example 1220], the IC50 amounted to 200 nM. Take `CCCCC1(CCCC)CS(=O)(=O)c2ccc(N(C)C)cc2C(c2ccc(C(=O)OC)cc2)C1O` (stereo not drawn) [Example 1221]: the concentration for half-maximal inhibition (IC50) stood at 41 nM.

`CCCCC1(CCCC)CS(=O)(=O)c2ccc(NCC)cc2C(c2cccc(OC)c2)C1O` (stereo not drawn) [Example 1222]: the IC50 was 65 nM. For `CCCCC1(CCCC)CS(=O)(=O)c2cc(Br)c(NC)cc2C(c2ccccc2)C1O` (stereo not drawn) [Example 1223] the value was 280 nM. As to `CCCCC1(CCCC)CS(=O)(=O)c2ccc(F)cc2C(c2cccc([N+](=O)[O-])c2)C1O` (stereo not drawn) [Example 1224], the IC50 is 330 nM.

With `CCCCC1(CCCC)CS(=O)(=O)c2cc(Br)c(N(C)C)cc2C(c2ccc[nH]2)C1O` (stereo not drawn) [Example 1228], the IC50 turned out to be 38 nM. `CCCCC1(CCCC)CS(=O)(=O)c2ccc(N(C)C)cc2C(c2ccc(O)c(Cl)c2)C1O` (stereo not drawn) [Example 1229]: the IC50 was 49 nM. To `CCCCC1(CCCC)CS(=O)(=O)c2c(cc(F)cc2N(C)C)C(c2ccccc2)C1O` (stereo not drawn) [Example 1230] belongs 62 nM.

`CCCCC1(CCCC)CS(=O)(=O)c2ccc(N(C)C)cc2C(c2ccc3cc(OC)ccc3c2)C1O` (stereo not drawn) [Example 1231]: the IC50 amounted to 75 nM. Consider `CCCCC1(CCCC)CS(=O)(=O)c2ccc(N(C)C)cc2C(c2cccc(C[N+](C)(C)CCN(C)C)c2)C1O` (stereo not drawn) [Example 1233], for which the IC50 was found to be 150 nM.

Turning to `CCCCC1(CCCC)CS(=O)(=O)c2ccc(N(C)C)cc2C(c2cccc(C[N+](C)(C)C)c2)C1O` (stereo not drawn) [Example 1234], the half-maximal inhibitory concentration (IC50) was 67 nM. For `CCCCC1(CCCC)CS(=O)(=O)c2ccc(N(C)C)cc2C(c2cccc(OCCN(CC)CC)c2)C1O` (stereo not drawn) [Example 1235] the value was 45 nM. For `CCCCC1(CCCC)CS(=O)(=O)c2ccc(N(C)C)cc2C(c2ccc(CBr)cc2)C1O` (stereo not drawn) [Example 1236] the value was 50 nM; for `CCCCC1(CCCC)CS(=O)(=O)c2ccc(N(C)C)cc2C(c2ccc(OCC[N+](C)(C)CCOCCOCC[N+](C)(C)C)cc2)C1O` (stereo not drawn) [Example 1237], 70 nM.

Regarding `C=COCCOCCOCCOc1ccc(C2c3cc(N(C)C)ccc3S(=O)(=O)CC(CCCC)(CCCC)C2O)cc1F` (stereo not drawn) [Example 1238], the IC50 was determined as 800 nM.

For `CCCCC1(CCCC)CS(=O)(=O)c2ccc(N(C)C)cc2C(c2ccc(OCCOCCBr)c(F)c2)C1O` (stereo not drawn) [Example 1239], the IC50 was 35 nM. Take `CCCCC1(CCCC)CS(=O)(=O)c2ccc(N(C)C)cc2C(c2ccc(OC)c(C)c2)C1O` (stereo not drawn) [Example 1240]: the IC50 is 16 nM. For `CCCCC1(CCCC)CS(=O)(=O)c2ccc(N(C)C)cc2C(c2cccc(CN(C)C)c2)C1O` (stereo not drawn) [Example 1241] the value was 47 nM; for `CCCCC1(CCCC)CS(=O)(=O)c2ccc(N(C)C)cc2C(c2ccc(OCCOCCOCCOCCCl)c(F)c2)C1O` (stereo not drawn) [Example 1242], 29 nM; for `CCCCC1(CCCC)CS(=O)(=O)c2ccc(N(C)C)cc2C(c2ccc(O)c(C[N+](C)(C)C)c2)C1O` (stereo not drawn) [Example 1243], 630 nM.
